Measurements: patent US10376520B2, “Methods for the treatment of cardiovascular disorders” (Galapagos NV, priority 2015, dated 2019)

Columns and labels:
RA patients = assay: Total cholesterol determination, Study 4 (4 weeks study in RA patients with inadequate response to methotrexate); assay type: in vivo, human; settings: for [Total cholesterol] levels: Study 4
From the text: Randomized, double-blind, placebo-controlled, multicenter, phase II study of Compound 1 (dosed as a [Compound 1:HCl:3H2O]) to compare four dose regimens versus placebo, in combination with methotrexate, administered for 4 weeks in the treatment of subjects with active rheumatoid arthritis who have an inadequate response to methotrexate alone.
Randomized double-blind, placebo-controlled add on study in subjects with active RA who have an inadequate response to MTX monotherapy, in combination with methotrexate, administered for 4 weeks in the treatment of subjects with active rheumatoid arthritis who have an inadequate response to methotrexate alone.
90 subjects randomized to one of 4 dose regimens of Compound 1 (dosed as a [Compound 1:HCl:3H2O]) or placebo, on top of their stable dose of MTX. Thus, each of the 4 different doses of Compound 1 (dosed as a [Compound 1:HCl:3H2O]) and placebo groups has 18 subjects.
Compound 1 (dosed as a [Compound 1:HCl:3H2O]) capsules administered orally in 30 mg, 75 mg, 150 mg, or 300 mg doses per day for 4 weeks.
This method is based on the determination of Δ^4 cholestenone after enzymatic cleavage of the cholesterol ester by cholesterol esterase, conversion of cholesterol by cholesterol oxidase, and subsequent measurement by the Trinder reaction of the hydrogen peroxide formed (Allain et al., 1974).
Cholesterol esters are cleaved by the action of cholesterol esterase to yield free cholesterol and fatty acids. Cholesterol oxidase then catalyzes the oxidation of cholesterol to cholest-4-en-3-one and hydrogen peroxide. In the presence of peroxidase, the hydrogen peroxide formed effects the oxidative coupling of phenol and 4-aminophenazone to form a red quinone-imine dye. The color intensity of the dye formed is directly proportional to the cholesterol concentration. It is determined by measuring the increase in absorbance.
Human serum and plasma samples cholesterol determination was done on a Roche/Hitachi Cobas c 701/702 system which automatically calculate the analyte concentration of each sample.

[1] = tested on: healthy volunteers, and patients suffering from inflammatory diseases; assay: Lipid profile after oral administration of Compound 1 in humans (summary over the studies); assay type: in vivo, human
Method: When Compound 1 was administered orally in humans, an unexpected change in the lipid profile was observed.
In contrast, whereas Compound 1 raised the low [total cholesterol] levels, an unexpected disproportionate rise in blood of [HDL] vs [LDL] was observed. In particular, [HDL] levels of 5-23% compared to initial levels were seen. Moreover, this rise in [HDL] was substantially higher than the corresponding increases in [LDL] levels. In particular between 1.1 and 4 fold higher increases in [HDL] vs. [LDL] were seen.
Typically, in a recent treatment study with Tofacitinib, a JAK inhibitor for 6 weeks at a dose of 10 mg bid in RA patient, the atherogenic index was unchanged before and after treatment at about 3.5 (Charles-Schoeman et al., 2015) thus leaving the patient at an increased cardiovascular risk before and after treatment.
Furthermore, this effect was sustained over at least 12 weeks, and at least 24 weeks and were observed over a dose range of 50-200 mg administered either twice daily (b.i.d) or once a day (q.d.).
Additionally, this effect was seen both in healthy volunteers, and patients suffering from inflammatory diseases (for example RA and Crohn's disease).

O=C(Nc1nc2cccc(-c3ccc(CN4CCS(=O)(=O)CC4)cc3)n2n1)C1CC1 [Compound 1, cyclopropanecarboxylic acid {5-[4-(1,1-dioxo-thiomorpholin-4-ylmethyl)-phenyl]-[1,2,4]triazolo[1,5-a]pyridin-2yl}-amide]
[Total cholesterol] % Mean % variation vs baseline after 4 weeks (RA patients; 30 mg qd): 6%
[Total cholesterol] % Mean % variation vs baseline after 4 weeks (RA patients; 75 mg qd): 5%
[Total cholesterol] % Mean % variation vs baseline after 4 weeks (RA patients; 150 mg qd): 3%
[Total cholesterol] % Mean % variation vs baseline after 4 weeks (RA patients; 300 mg qd): 17%
[Total cholesterol] levels (RA patients; 30 mg q.d., baseline): 5.19 mmol/L
[Total cholesterol] levels (RA patients; 30 mg q.d., week 1): 5.31 mmol/L
[Total cholesterol] levels (RA patients; 30 mg q.d., week 2): 5.25 mmol/L
[Total cholesterol] levels (RA patients; 30 mg q.d., week 3): 5.32 mmol/L
[Total cholesterol] levels (RA patients; 30 mg q.d., week 4): 5.50 mmol/L
[Total cholesterol] levels (RA patients; 75 mg q.d., baseline): 4.99 mmol/L
[Total cholesterol] levels (RA patients; 75 mg q.d., week 1): 5.04 mmol/L
[Total cholesterol] levels (RA patients; 75 mg q.d., week 2): 5.07 mmol/L
[Total cholesterol] levels (RA patients; 75 mg q.d., week 3): 5.08 mmol/L
[Total cholesterol] levels (RA patients; 75 mg q.d., week 4): 5.18 mmol/L
[Total cholesterol] levels (RA patients; 150 mg q.d., baseline): 4.77 mmol/L
[Total cholesterol] levels (RA patients; 150 mg q.d., week 1): 4.94 mmol/L
[Total cholesterol] levels (RA patients; 150 mg q.d., week 2): 4.85 mmol/L
[Total cholesterol] levels (RA patients; 150 mg q.d., week 3): 4.89 mmol/L
[Total cholesterol] levels (RA patients; 150 mg q.d., week 4): 4.96 mmol/L
[Total cholesterol] levels (RA patients; 300 mg q.d., baseline): 4.56 mmol/L
[Total cholesterol] levels (RA patients; 300 mg q.d., week 1): 5.13 mmol/L
[Total cholesterol] levels (RA patients; 300 mg q.d., week 2): 5.21 mmol/L
[Total cholesterol] levels (RA patients; 300 mg q.d., week 3): 5.23 mmol/L
[Total cholesterol] levels (RA patients; 300 mg q.d., week 4): 5.33 mmol/L
rise in [HDL] levels compared to initial levels ([1]; administered orally in humans): 5-23%
atherogenic index ([1]; doses ranging from 50 mg to 200 mg (once or twice daily) for a period of at least 4 weeks): drop of the atherogenic index
